Data set [1] relates to liver ischemia-reperfusion model using rats. The data set is described as follows: Adenine nucleotides concentration in liver tissue during liver ischemia-reperfusion. It counts as in vivo. The following applies: rat, 50 mg/kg i.v.; for effect on restoration of liver ATP following reperfusion: 1 hour reperfusion. On the procedure: Male Wister rats weighing 250-300 g were fasted with free access to water 24 hours before the experiment. Seventy-two rats were divided into three groups of 24 animals each, i.e., the control group, the GSH administration group and the γ-GCE-administration group. Each rat was anesthetized by intraperitoneal administration of 40 mg/0.8 ml/kg of sodium pentobarbital, and the femoral vein was cannulated. In the GSH group and the γ-GCE group, 50 mg/kg of GSH or γ-GCE respectively were administered intravenously. Physiological saline was then infused for volume replacement in each group, as a continuous intravenous infusion at a rate of 0.8 ml/hr with an injection pump throughout the experiment. Thirty minutes after starting injection of physiological saline, the abdomon was opened by a midline incision and the liver hilus was exposed. According to the method described by Hasselgren, et al. in J. Surg. Res., Vol. 34, pp. 409-414, 1984, all vessels to the left and median lobes of the liver, more specifically, hepatic artery, portal vein and the bile duct, were clamped to produce an ischemic state for 2 hours. Since blood vessels to the remaining parts of the liver were not occluded by this method, poral stasis could be avoided which was of special relevance for circulation stability in rats. Thereafter, occlusion of all vessels was released by removing the clamp to allow reperfusion for 1 hour. The abdominal walls were closed during ischemia and reperfusion.
Using 18 rats in each group, the livers of 6 animals from each group were removed before ischemia, after 2 hours of ischemia, and after 1 hour of reperfusion, respectively. A portion of the liver from each animal was rapidly frozen in liquid nitrogen and used for measurement of glutathione,adenine nucleotides and lipid peroxide. From the remaining portion of the liver, mitochondria was immediately extracted according to the method described by Hogeboom and Schneider in the J. Biol. Chem., Vol. 172, p. 619, 1948. In other experiments, immediately after starting reperfusion, blood from the hepatic vein was collected using 6 rats from each group. These blood samples were then used to measure leaked adenine nucleotides. In addition, after 1 hour of said reperfusion, blood samples were also drawn, which were then used to measure the activity of the leaked liver cell enzymes.
Evaluation of ischemia-reperfusion injury was performed by measuring liver tissue (1) mitochondrial function, (2) glutathione concentration, (3) adenine nucleotides concentration, and (4) lipid peroxide concentration, as well as liver tissue derived (5) adenine nucleotides concentration in the hepatic vein immediately after starting reperfusion, and (6) liver cell enzyme activities in the blood after 1 hour of reperfusion. More specifically, the mitochondrial function in (1) was measured according to the method described by Chance, et al. in Adv. Enzymol., Vol. 17, p. 65, 1956. In addition, the quantitative determination of glutathione in (2) was performed using the same method as Experiment 1 on supernatant obtained by adding 10 vol/g of tissue weight of 2.5% (w/v) sulfosalicylic acid dihydrate aqueous solution to the liver tissue followed by homogenization and centrifugation. In addition, the quantitative determination of adenine nucleotides in (3) was performed by neutralizing the perchloric acid extract of the liver tissue with potassium hydroxide followed by removal of the precipitate and applying to an ion exchange HPLC column according to the method described by Sugino, et al. in J. Chromatogr., Vol. 361, pp. 427-431, 1986. In addition, the measurement of lipid peroxide in (4) was performed according to the thiobarbiturate method described by Ohkawa, et al. in Anal. Biochem., Vol. 95, p. 351, 1979. […]

For data set [2] the following is noted: in vivo; cited from earlier work.
Data set [3] deals with pulmonary membrane β-receptors. The data set is described as follows: Number of pulmonary membrane β-receptors in ovalbumin inhalation model. It counts as in vivo. The following applies: guinea pig; 2% OA aerosol 10 days; 10 mg/kg i.p. twice daily for 10 days; FIG. 4. The method, then: (§1) Male Hartley guinea pigs weighing 350-400 g were divided into three groups, i.e., the control group, the ovalbumin (OA) group and the OA+γ-GCE group. The control group was allowed to inhale an aerosol of physiological saline for 7-8 minutes per day for 10 consecutive days. The OA group was allowed to inhale an aerosol of 2% OA in the same manner. The OA+γ-GCE group was allowed to similarly inhale an aerosol of 2% OA together with intraperitoneal administration of 10 mg/kg of γ-GCE twice daily for 10 days. […] Each of the measurements were made using 6 animals in each group, and the results were expressed as mean ± standard deviation. Evaluation of significance was performed using Dunnett's test. Cases of P being less than 0.05 were considered to be statistically significant.

Data set [4] deals with pulmonary membrane adenylate cyclase. The data set is described as follows: Pulmonary membrane adenylate cyclase activity in ovalbumin inhalation model. It counts as in vivo. The following applies: guinea pig; 2% OA aerosol 10 days; 10 mg/kg i.p. twice daily for 10 days; isoproterenol-stimulated and baseline; FIG. 5. On the procedure: as §1
In another data set the test system is xanthine oxidase. Description: Xanthine oxidase activities in lung tissue, bronchoalveolar lavage fluid and serum. Type of data set: in vivo. Conditions: guinea pig; OA inhalation 10 days + 10 mg/kg i.p. twice daily. The method, then: as §1
For data set [5], the system named is ovalbumin inhalation model using guinea pigs. Description: Airway responsiveness (Ach PC200) in ovalbumin inhalation model. Type of data set: in vivo. The following applies: guinea pig; 2% OA aerosol 10 days; 10 mg/kg i.p. twice daily for 10 days; FIG. 3. The method, then: Male Hartley guinea pigs weighing 350-400 g were divided into three groups, i.e., the control group, the ovalbumin (OA) group and the OA+γ-GCE group. The control group was allowed to inhale an aerosol of physiological saline for 7-8 minutes per day for 10 consecutive days. The OA group was allowed to inhale an aerosol of 2% OA in the same manner. The OA+γ-GCE group was allowed to similarly inhale an aerosol of 2% OA together with intraperitoneal administration of 10 mg/kg of γ-GCE twice daily for 10 days.
Evaluation of efficacy was performed by measuring (1) the minimum provocative concentration of acetylcholine (Ach) at which the respiratory resistance reached more than 200% of baseline (Ach Provocative Concentration 200) both before and after inhalation for 10 days, together with measuring (2) the number of pulmonary membrane β-receptors and adenylate cyclase activity, and (3) xanthine oxidase activities in lung tissue, bronchoalveolar lavage fluid and serum, following 10 days of inhalation.
Each of the measurements were made using 6 animals in each group, and the results were expressed as mean ± standard deviation. Evaluation of significance was performed using Dunnett's test. Cases of P being less than 0.05 were considered to be statistically significant.

Turning to `N[C@@H](CCC(=O)N[C@@H](CS)C(=O)NCC(=O)O)C(=O)O` [GSH, reduced glutathione, reference compound], in data set [1], the “effect on restoration of liver ATP following reperfusion” value is “did not show any promotive effects on the restoration of ATP”; the “Liver tissue ADP, after 1 hour reperfusion” value came out at 0.38 μmol/g wet liver weight; the “Liver tissue AMP, after 1 hour reperfusion” value is 0.15 μmol/g wet liver weight; the “Liver tissue ATP + ADP + AMP, after 1 hour reperfusion” value was 1.66 μmol/g wet liver weight. For the same compound, in data set [1], the “Liver tissue ATP, after 1 hour reperfusion” value is listed as 1.13 μmol/g wet liver weight; the “Liver tissue ADP, after 2 hours ischemia” value amounted to 0.13 μmol/g wet liver weight; the “Liver tissue AMP, after 2 hours ischemia” value is on record as 0.73 μmol/g wet liver weight; the “Liver tissue ATP + ADP + AMP, after 2 hours ischemia” value is recorded as 0.90 μmol/g wet liver weight. Also, in data set [1], the “Liver tissue ATP, after 2 hours ischemia” value came out at 0.04 μmol/g wet liver weight; the “Liver tissue ADP, before ischemia” value worked out at 0.65 μmol/g wet liver weight; the “Liver tissue AMP, before ischemia” value is recorded as 0.18 μmol/g wet liver weight; the “Liver tissue ATP + ADP + AMP, before ischemia” value came to 3.40 μmol/g wet liver weight. Also, the “Liver tissue ATP, before ischemia” value in data set [1] is given as 2.57 μmol/g wet liver weight. For the same compound, in data set [2], the “half-life in the blood when administered” value was “several minutes”.
On to `CCOC(=O)[C@H](CS)NC(=O)CC[C@H](N)C(=O)O` [γ-GCE, γ-L-glutamyl-L-cysteine ethyl ester], for which the “effect on the reduction in pulmonary membrane β-receptors after OA inhalation” value in data set [3] was “inhibited”. Besides, in data set [1], the “effect on restoration of liver ATP following reperfusion” value is “significantly promoted restoration of ATP following reperfusion”; the “Liver tissue ADP, after 1 hour reperfusion” value is reported as 0.38 μmol/g wet liver weight; the “Liver tissue AMP, after 1 hour reperfusion” value is reported as 0.12 μmol/g wet liver weight; the “Liver tissue ATP + ADP + AMP, after 1 hour reperfusion” value worked out at 2.21 μmol/g wet liver weight. In data set [1], the “Liver tissue ATP, after 1 hour reperfusion” value was found to be 1.70 μmol/g wet liver weight; the “Liver tissue ADP, after 2 hours ischemia” value is recorded as 0.17 μmol/g wet liver weight; the “Liver tissue AMP, after 2 hours ischemia” value stood at 0.87 μmol/g wet liver weight; the “Liver tissue ATP + ADP + AMP, after 2 hours ischemia” value amounted to 1.10 μmol/g wet liver weight. Besides, in data set [1], the “Liver tissue ATP, after 2 hours ischemia” value was 0.06 μmol/g wet liver weight; the “Liver tissue ADP, before ischemia” value is recorded as 0.57 μmol/g wet liver weight; the “Liver tissue AMP, before ischemia” value was 0.13 μmol/g wet liver weight; the “Liver tissue ATP + ADP + AMP, before ischemia” value turned out to be 3.39 μmol/g wet liver weight. The “Liver tissue ATP, before ischemia” value in data set [1] is reported as 2.69 μmol/g wet liver weight. In addition, the “effect on the reduction of liver ATP caused by ischemia” value in data set [1] (2 hours ischemia) is given as “did not show any effects on the reduction of ATP caused by ischemia”. Further, the “effect on the reduction in pulmonary membrane adenylate cyclase activity after OA inhalation” value in data set [4] is listed as “inhibited”. In the data set with xanthine oxidase, the “Xanthine oxidase activity, bronchoalveolar lavage fluid” value was found to be 9.43 ± 0.95 mU/ml; the “Xanthine oxidase activity, lung tissue” value was determined as 33.3 ± 4.02 mU/g tissue; the “Xanthine oxidase activity, serum” value amounted to 10.0 ± 1.77 mU/ml; the “xanthine oxidase values compared with the OA group, lung tissue and bronchoalveolar lavage fluid” value is “significantly lower than those of the OA group”. Further, the “effect on increase in airway responsiveness (decrease in log[Ach PC200]) after OA inhalation” value in data set [5] is on record as “inhibited (1) the remarkable increase in airway responsiveness”.

The record behind these values is patent publication US6127342A, “Method for preventing or treating a lung disease caused by active oxygen and free radical injury” (Teijin Limited, priority 1991, dated 2000).
